{"source": "patent US20240016744A1", "about": "“NALTREXONE AND RISPERIDONE COMBINATION SUSTAINED-RELEASE COMPOSITION” (SHENZHEN SCIENCARE MEDICAL INDUSTRIES CO.,, priority 2020, published 2024)", "system": "methylamphetamine-induced behavioral sensitization (spontaneous activities of the mice)", "experiment": "Animal pharmacodynamic evaluation: methylamphetamine-induced behavioral sensitization, spontaneous activity", "format": "in vivo, SD mice", "conditions": "methylamphetamine 2 mg/kg i.p., no implant, from day 7; FIG. 9", "description": "All mice were bred under the same conditions. The product of the present disclosure was surgically implanted into each mouse in a model group before an experiment. Except implantation of the product of the present disclosure, other experimental conditions of a positive control group were the same as those of the model group. Mice in a negative control group were normally bred without undergoing experimental treatment. Behavioral differences among the model group, the positive control group, and the negative control group were observed during the experiment.\n36 SD mice weighing […], half male and half female, were taken. The mice were randomly divided into 3 groups: a positive control group, a negative control group, and a model group. The compound sustained-release preparation (prepared in Example 1) was implanted into the back of each mouse in the model group before administration, and a challenge experiment was carried out on the second day after surgery.\nDuring the formative period, methylamphetamine (2 mg/kg) was daily intraperitoneally injected into each mouse in the positive control group and the model group, an equal amount of normal saline was intraperitoneally injected into each mouse in the negative control group for 7 consecutive days. During the conversion period, the drug was withdrawn for 7 days without any treatment. […]", "data": [{"smiles": "CN[C@@H](C)Cc1ccccc1", "note": "[methylamphetamine]", "values": [{"measurement": "activities of the mice in the positive control group (behavioral sensitization)", "result": "significantly increased (P<0.05)"}]}]}
